Laboratory results reported in patent US4812162A, “Indole derivatives and their use as fungicides, insecticides and pesticides” (Imperial Chemical Industries PLC, priority 1986, dated 1989).

How the values were obtained:
Pyricularia oryzae = assay type: in vivo; conditions: 100 ppm foliar spray plus root drench ca. 40 ppm a.i./dry soil, 1-2 days before inoculation
Erysiphe graminis = assay: fungicidal activity against foliar fungal diseases of plants, Erysiphe graminis (barley); assay type: in vivo; conditions: 100 ppm foliar spray plus root drench ca. 40 ppm a.i./dry soil, inoculated 24 hours before treatment
Phytophthora infestans = assay type: in vivo; conditions: 100 ppm foliar spray plus root drench ca. 40 ppm a.i./dry soil, 1-2 days before inoculation
Puccinia recondita = assay: fungicidal activity against foliar fungal diseases of plants, Puccinia recondita (wheat); assay type: in vivo; conditions: 100 ppm foliar spray plus root drench ca. 40 ppm a.i./dry soil, 1-2 days before inoculation
Venturia inaequalis = assay: fungicidal activity against foliar fungal diseases of plants, Venturia inaequalis (apple); assay type: in vivo; conditions: 100 ppm foliar spray plus root drench ca. 40 ppm a.i./dry soil, 1-2 days before inoculation
Plasmorpara viticola = assay: fungicidal activity against foliar fungal diseases of plants, Plasmorpara viticola (vine); assay type: in vivo; conditions: 100 ppm foliar spray plus root drench ca. 40 ppm a.i./dry soil, 1-2 days before inoculation
Cercospora arachidicola = assay: fungicidal activity against foliar fungal diseases of plants, Cercospora arachidicola (peanut); assay type: in vivo; conditions: 100 ppm foliar spray plus root drench ca. 40 ppm a.i./dry soil, 1-2 days before inoculation
[1] = test system: Blattella germanica (cockroach nymphs); assay: insecticidal properties, residual test, Blattella germanica nymphs (BG); assay type: in vivo; conditions: 500 ppm, plastic pot, 3 days
Source text: (§1) "SYNPERONIC" is a Registered Trade Mark.

[2] = test system: Tetranychus urticae (spider mites - ova); assay: insecticidal properties, contact test, Tetranychus urticae ova (TUe); assay type: in vivo; conditions: 500 ppm, French bean leaf, 6 days
Source text: as §1

[3] = test system: Meloidogyne incognita (tomato root knot eelworm - larvae); assay: nematode test, residual, Meloidogyne incognita larvae (MI); assay type: in vivo; conditions: 250 ppm, semi in-vitro, 7 days
Source text: as §1
MI Meloidogyne incognita

Myzus persicae (aphids) = assay: insecticidal properties, contact test, Myzus persicae (MP); assay type: in vivo; conditions: 500 ppm, Chinese Cabbage leaf, 3 days
Source text: as §1

Rice = assay: plant growth regulating, whole plant screen, rice; assay type: in vivo, Rice (Ishikari); conditions: rice (RC); 4000 ppm (4 kg/ha); after 2-6 weeks
Experimental: (§2) This Example illustrates the plant growth regulating properties of compounds 1 and 2 when tested on a whole plant screen against various species of plant. The plant species are identified in Table IV with the leaf stage at which they were sprayed.
(§3) A formulation of each chemical was applied at 4000 ppm (4 kg/ha in a 1000 l/ha field volume) using a tracksprayer and a SS8004E (Teejet) nozzle.
(§4) After spraying, the plants were grown in a glasshouse with 25° C. day/22° C. night temperatures. Supplementary lighting was supplied when necessary to provide an average photoperiod of 16 hours (14 hours minimum).
(§5) After 2-6 weeks in the glasshouse, depending on species and time of year, the plants were visually assessed for morphological characteristics against a control plant sprayed with a blank formulation.

Apple = assay: plant growth regulating, whole plant screen, apple; assay type: in vivo, Apple (Red Delicious); conditions: apple (AP); 4000 ppm (4 kg/ha); after 2-6 weeks
Experimental: as §2, §3, §4, §5

[4] = test system: Tetranychus urticae (spider mites - adults); assay: insecticidal properties, contact test, Tetranychus urticae adults (TUa); assay type: in vivo; conditions: 500 ppm, French bean leaf, 3 days
Source text: as §1

[5] = test system: Diabrotica balteata (rootworm larvae); assay: insecticidal properties, residual test, Diabrotica balteata (DB); assay type: in vivo; conditions: 500 ppm, filter paper/maize seed, 3 days
Source text: as §1

[6] = test system: Chilo partellus (maize and sorghum stem borers - larvae); assay: insecticidal properties, residual test, Chilo partellus larvae (CPA); conditions: 500 ppm, oilseed rape, 3 days
Experimental: The activity of the compound was determined using insect, mite and nematode pests. The compound was used in the form of a liquid preparation containing 500 parts per million (ppm) by weight of the compound except for the test on Meloidogyne incognita when a liquid preparation of 250 ppm by weight was used. The preparation was made by dissolving the compound in acetone and diluting the solution with water containing 0.1% by weight of a wetting agent sold under the trade name "SYNPERONIC" NX until the liquid preparation contained the required concentration of the product.
The test procedure adopted with regard to each pest was basically the same and comprised supporting a number of the pests on a medium which was usually a host plant or a foodstuff on which the pests feed, and treating either or both the pests and the medium with the preparation. The mortality of the pests was then assessed at periods usually varying from one to seven days after the treatment.
The results of the tests are given in Table VII as a grading of mortality designated as 9, 5 or 0 wherein 9 indicates 80-100% mortality, 5 indicates 50-79% mortality and 0 indicates less than 50% mortality.

[7] = test system: Nilaparvata lugens (brown plant hopper - nymphs); assay: insecticidal properties, contact test, Nilaparvata lugens nymphs (NL); assay type: in vivo; conditions: 500 ppm, rice plant, 3 days
Source text: as §1

[8] = test system: Musca domestica (houseflies - adults); assay: insecticidal properties, contact test, Musca domestica adults (MDa); assay type: in vivo; conditions: 500 ppm, cotton wool/sugar, 1 day
Source text: as §1

[9] = test system: Heliothis virescens (tobacco budworm - larvae); assay: insecticidal properties, residual test, Heliothis virescens larvae (HV); assay type: in vivo; conditions: 500 ppm, cotton leaf, 3 days
Source text: as §1

[10] = test system: Musca domestica (houseflies - adults); assay: knockdown properties against Musca domestica (MDk); assay type: in vivo; conditions: 2000 ppm sprayed directly; inverted cup; knockdown at 15 minutes, mortality at 48 hours; 2 days
Experimental: A sample of compound 1 was diluted with 2 mls acetone and made up of a 2000 ppm solution with 0.1% aqueous synperonic solution. The solution (1 ml) was then sprayed directly onto twenty mixed sex houseflies held in a drinking cup. Immediately after spraying the cups were inverted and left to dry. An assessment of knockdown was made when the cups were righted 15 minutes later. The flies were then provided with a 10% sucrose solution on a cotton wool pad, and held for 48 hours in a holding room conditioned at 25° C. and 65% relative humidity before a mortality assessment was made.

Maize = assay: plant growth regulating, whole plant screen, maize; assay type: in vivo, Maize (Earliking); conditions: maize (MZ); 4000 ppm (4 kg/ha); after 2-6 weeks
Experimental: as §2, §3, §4, §5

Tomato = assay: plant growth regulating, whole plant screen, tomato; assay type: in vivo, Tomato (Ailsa Craig); conditions: tomato (TO); 4000 ppm (4 kg/ha); after 2-6 weeks
Experimental: as §2, §3, §4, §5

Structure (SMILES) | disease control, P[…] (RICE) (Pyricularia oryzae) | disease control, ERYSIPHE GRAMINIS (BARLEY) (Erysiphe graminis) | disease control, PH[…] (TOMATO) (Phytophthora infestans) | disease control, PUCCINIA RECONDITA (WHEAT) (Puccinia recondita) | disease control, VENTURIA INAEQUALIS (APPLE) (Venturia inaequalis) | disease control, PLASMORPARA VITICOLA (VINE) (Plasmorpara viticola) | disease control, CERCOSPORA ARACHIDICOLA (PEANUT) (Cercospora arachidicola) | other results
CO/C=C(/C(=O)OC)n1ccc2ccc(-c3ccccc3)cc21 [Compound 3, (Z)-methyl 3-methoxy-2-[6-phenylindol-1-yl]acrylate] | 4 | 2 (6-25% of disease on untreated plants) | 4 | 4 | 4 | 4 |  | 
CO/C=C(/C(=O)OC)n1ccc2ccc(I)cc21 [Compound 8] |  | 4 | 4 | 4 | 4 | 4 | 4 | 
CO/C=C(/C(=O)OC)n1ccc2ccc(Br)cc21 [Compound 7] |  | 4 | 4 | 4 | 4 | 4 | 4 | 
CO/C=C(/C(=O)OC)n1ccc2ccccc21 [Compound 1] | 3 (trace--5% of disease on untreated plants) | 1 (26-59% of disease on untreated plants) |  | 0 (60-100% of disease on untreated plants) | 3 (trace--5% of disease on untreated plants) | 4 | 3 (trace--5% of disease on untreated plants) | grading of mortality, BG [1]: 0 (less than 50% mortality); grading of mortality, TUe [2]: 0 (less than 50% mortality); grading of mortality, MI [3]: 0 (less than 50% mortality); grading of mortality, MP (Myzus persicae (aphids)): 0 (less than 50% mortality); I = Interligular or internodal length reduction (Rice): 1 (10-30%); R = Retardation (Rice): 1 (10-30%); I = Interligular or internodal length reduction (Apple): 1 (10-30%); R = Retardation (Apple): 1 (10-30%); grading of mortality, TUa [4]: 9 (80-100% mortality); grading of mortality, DB [5]: 0 (less than 50% mortality); grading of mortality, CPA [6]: 9 (80-100% mortality); grading of mortality, NL [7]: 0 (less than 50% mortality); grading of mortality, MDa [8]: 0 (less than 50% mortality); grading of mortality, HV [9]: 0 (less than 50% mortality); grading of mortality, MDk (knockdown) [10]: 0 (less than 50% mortality)
CO/C=C(/C(=O)OC)n1ccc2ccc(OC)cc21 [Compound 4] | 4 | 2 (6-25% of disease on untreated plants) | 0 (60-100% of disease on untreated plants) | 1 (26-59% of disease on untreated plants) | 4 | 4 | 3 (trace--5% of disease on untreated plants) | 
CCOc1ccc2ccn(/C(=C\OC)C(=O)OC)c2c1 [Compound 2, (Z)-methyl 3-methoxy-2-[6-ethoxyindol-1-yl]acrylate] | 4 | 4 | 4 | 4 | 4 | 4 | 4 | A = Apical damage (Maize): 2 (31-60%); G = Greening effect (Maize): 1 (10-30%); A = Apical damage (Tomato): 3 (61-100%); I = Interligular or internodal length reduction (Tomato): 3 (61-100%); P = Phytotoxicity (Tomato): 2 (11-30%); R = Retardation (Tomato): 3 (61-100%); T = Tillering or side shooting (Tomato): 1 (10-30%)
